The subject of assay [1] is HaCaT cells. The experiment in a line: ROS measurement (DCF/flow cytometry) in HaCaT cells. To be noted: HG HaCaT cells; 5 μmol/L SF or 20 μmol/L CA every 24 h, 48 h. It counts as cell-based, human. As to the method:
Human immortalized keratinocytes HaCaT were obtained from the Arizona Cancer Center (see, […], et al., J Cell Biol 106:761-771, 1988). Cells were grown in Dulbecco's modified Eagle's medium (DMEM) containing low glucose (LG, 5.5 mmol/L) and 10% fetal bovine serum (FBS) in an incubator at 37° C. with 5% CO2. For the experiments, the cells were starved in serum-free LG DMEM for 24 h, then either maintained in LG DMEM or switched to high glucose (HG, 25 mmol/L) DMEM for 2 days (see, e.g., Zheng H, et al., Diabetes 60:3055-3066, 2011; Lan C C, et al., Br J Dermatol 159:1103-1115, 2008). For the treatments, the cells were dosed with 5 μmol/L SF or 20 μmol/L CA. siRNA transfections. […] ROS were measured in HaCaT cells using DCF. […] Then, 48 h later, the cells were switched into fresh medium containing 10 μg/mL DCF, incubated 30 min, and fluorescence intensity was measured by flow cytometry. The rate of cell proliferation was measured by two methods (see, […], et al., Proc Natl Acad Sci USA 108:1433-1438, 2011): 1) detection of Ki67 using indirect immunofluorescence as described previously (see, e.g., Lau A, et al., Mol Cell Biol 30:3275-3285, 2010); and 2) using the xCELLigence system (Roche). For this, 8000 HaCaT cells/well were seeded in LG or HG media, with or without an NRF2 activator, and cell growth was monitored for 72 h. […]
(A flow cytometer gives signals particle by particle.)

Assay [2] relates to TGF-β1. In words: TGF-β1 expression in wound skin tissues of STZ mice (immunoblot, IHC). It counts as in vivo, mouse. To be noted: immunoblot and IHC, day 14. The source says: Diabetes mouse model and treatments. Nrf2^+/+ and Nrf2^-/- C57BL/6 mice were described previously (see, e.g., Jiang T, et al., Diabetes 59:850-860, 2010) and were housed and handled in accordance with the University of Arizona Institutional Animal Care policies. The STZ-induced diabetic model was previously described (see, e.g., Zheng H, et al., Diabetes 60:3055-3066, 2011) and only 8 week old male mice were included in this study. Briefly, three weeks after STZ injections, fasting glucose levels (FGL, 4 h fast) were measured using the AlphaTRAK system (Abbott Laboratory, North Chicago, Ill.) and mice with a FGL higher than or equal to 250 mg/dL were considered diabetic and included in the study (see, e.g., FIG. 2A and FIG. 3A for a detailed timeline). […] Gross wound closure was quantified by ImageJ software, and wound healing was expressed as the percentage of the original wound area that had healed. […] Morphology was assessed by hematoxylin and eosin (H&E) staining (Vector laboratory, Burlingame, Calif.). […] Protein concentration was measured using Quant-iT Protein Assay (Invitrogen) and 150 μg of protein were resolved by SDS-PAGE and immunoblotting analyses with the indicated antibodies.
On the technique in general: Immunoblotting shows a protein as a band on a membrane.

For the compound `O=CC=Cc1ccccc1` [CA, Cinnamaldehyde], the ROS levels entry in assay [1] is recorded as “reduced ROS levels significantly”. Moreover, the TGF-β1 expression entry in assay [2] was “restored to levels comparable to that of Con mice”.
For the compound `C[S@@+]([O-])CCCCN=C=S` [SF, L-sulforaphane], the ROS levels entry in assay [1] is “reduced ROS levels significantly”. Further, the TGF-β1 expression entry in assay [2] is on record as “restored to levels comparable to that of Con mice”.

Values taken from patent US20180344680A1, “COMPOSITIONS AND METHODS FOR TREATMENT, AMELIORATION, AND PREVENTION OF DIABETES-RELATED SKIN ULCERS” (THE ARIZONA BOARD OF REGENTS ON BEHALF OF THE UNIVERSITY OF …, priority 2015, published 2018).
